The target of assay [1] is T1, NHE3 (Homo sapiens, UniProt P48764).
T1 construct: expressed in transfected cells
T1 sequence (P48764 26-834): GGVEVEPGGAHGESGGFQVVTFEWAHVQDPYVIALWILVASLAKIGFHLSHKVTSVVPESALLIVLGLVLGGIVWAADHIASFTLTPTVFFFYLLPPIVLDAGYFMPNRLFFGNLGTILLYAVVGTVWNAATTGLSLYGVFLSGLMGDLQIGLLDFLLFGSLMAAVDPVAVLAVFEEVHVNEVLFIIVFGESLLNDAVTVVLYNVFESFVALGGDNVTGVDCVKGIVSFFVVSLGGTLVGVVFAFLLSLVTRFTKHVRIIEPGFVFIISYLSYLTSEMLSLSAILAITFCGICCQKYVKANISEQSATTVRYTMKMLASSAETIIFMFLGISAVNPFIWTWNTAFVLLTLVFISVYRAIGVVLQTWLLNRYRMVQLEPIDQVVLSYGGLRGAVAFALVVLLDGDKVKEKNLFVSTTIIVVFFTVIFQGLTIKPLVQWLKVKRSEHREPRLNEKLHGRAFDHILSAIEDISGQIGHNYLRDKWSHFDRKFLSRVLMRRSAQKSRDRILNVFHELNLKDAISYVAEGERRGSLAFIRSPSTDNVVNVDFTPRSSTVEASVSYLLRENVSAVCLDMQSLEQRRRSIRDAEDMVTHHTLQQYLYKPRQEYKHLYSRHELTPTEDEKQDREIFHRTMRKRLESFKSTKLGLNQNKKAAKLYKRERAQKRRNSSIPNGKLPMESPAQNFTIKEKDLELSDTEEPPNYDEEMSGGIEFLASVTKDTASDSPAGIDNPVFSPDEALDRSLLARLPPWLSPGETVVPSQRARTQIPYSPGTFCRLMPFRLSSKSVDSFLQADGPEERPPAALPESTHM
T1 sequence (Q99653 2-195 partner limits assumed): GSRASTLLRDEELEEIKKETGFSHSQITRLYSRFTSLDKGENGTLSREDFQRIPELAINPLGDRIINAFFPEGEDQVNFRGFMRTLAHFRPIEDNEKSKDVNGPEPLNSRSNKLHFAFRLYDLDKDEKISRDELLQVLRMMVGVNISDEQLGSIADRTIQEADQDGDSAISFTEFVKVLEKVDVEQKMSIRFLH
In words: Cell-based assay of NHE-3 activity (persistent inhibition), human. The settings on record: human Persistence, 60 min incubation then washout. As for the experimental part: The ability of compounds to inhibit human and rat NHE-3-mediated Na^+ dependent H^+ antiport after application and washout was measured using a modification of the pH sensitive dye method described above. PS120 fibroblasts stably expressing human NHE3 and NHERF2 were obtained from Mark Donowitz (Baltimore, Md.). Opossum kidney (OK) cells were obtained from the ATCC and propagated per their instructions. The rat NHE-3 gene was introduced into OK cells via electroporation, and cells were seeded into 96 well plates and grown overnight. Medium was aspirated from the wells, cells were washed once with NaCl-HEPES buffer (100 mM NaCl, 50 mM HEPES, 10 mM glucose, 5 mM KCl, 2 mM CaCl2, 1 mM MgCl2, pH 7.4), then overlayed with NaCl-HEPES buffer containing 0-30 μM test compound. After a 60 min incubation at room temperature, the test drug containing buffer was aspirated from the cells. Following aspiration, cells were washed once with NaCl-HEPES buffer without drug, then incubated for 30 min at 37° C. with NH4Cl-HEPES buffer (20 mM NH4Cl, 80 mM NaCl, 50 mM HEPES, 5 mM KCl, 2 mM CaCl2, 1 mM MgCl2, pH 7.4) containing 5 μM BCECF-AM. Cells were washed once with Ammonium free, Na^+-free HEPES (100 mM choline, 50 mM HEPES, 10 mM glucose, 5 mM KCl, 2 mM CaCl2, 1 mM MgCl2, pH 7.4) and incubated in the same buffer for 10 minutes at room temperature to lower intracellular pH. NHE-3-mediated recovery of neutral intracellular pH was initiated (10 min after compound washout) by addition of Na-HEPES buffer. […] Changes in intracellular pH were monitored using a FLIPR Tetra® (Molecular Devices, Sunnyvale, Calif.) by excitation at λex 439 to 505 nm, and measuring BCECF fluorescence at λem 538 nm. The initial rate of the fluorescence ratio change was used as a measure of NHE-mediated Na^+/H^+ activity, and reported as the change in fluorescence ratio per minute.

Assay [2] concerns the target T1, NHE3. In words: Cell-based assay of NHE-3 activity (pre-incubation inhibition), human. The settings on record: human Preincubation. As for the experimental part: Rat and human NHE-3-mediated Na^+-dependent H^+ antiport was measured using a modification of the pH sensitive dye method originally reported by Paradiso (Proc. Natl. Acad. Sci. USA. (1984) 81(23): 7436-7440). PS120 fibroblasts stably expressing human NHE3 and NHERF2 were obtained from Mark Donowitz (Baltimore, Md.). Opossum kidney (OK) cells were obtained from the ATCC and propagated per their instructions. The rat NHE-3 gene (GenBank M85300) was introduced into OK cells via electroporation, and cells were seeded into 96 well plates and grown overnight. Medium was aspirated from the wells then incubated for 30 min at 37° C. with NH4Cl-HEPES buffer (20 mM NH4Cl, 80 mM NaCl, 50 mM HEPES, 5 mM KCl, 2 mM CaCl2, 1 mM MgCl2, pH 7.4) containing 5 μM BCECF-AM. Cells were washed once with Ammonium free, Na^+-free HEPES (100 mM choline, 50 mM HEPES, 10 mM glucose, 5 mM KCl, 2 mM CaCl2, 1 mM MgCl2, pH 7.4) and incubated in the same buffer for 10 minutes at room temperature to lower intracellular pH with 0-30 μM test compound. […] Changes in intracellular pH were monitored using a FLIPR Tetra® (Molecular Devices, Sunnyvale, Calif.) by excitation at λex 439 to 505 nm, and measuring BCECF fluorescence at λem 538 nm. The initial rate of the fluorescence ratio change was used as a measure of NHE-mediated Na^+/H^+ activity, and reported as the change in fluorescence ratio per minute.

Structures are written as SMILES. Where a name gives a salt, the structure may show the parent alone.

In the case of `COc1cc(Cl)cc2c1C[C@H](N(C)C)[C@H]2Oc1ccc(S(=O)(=O)NCCOCCOCCNC(=O)NCCCCNC(=O)NCCOCCOCCNS(=O)(=O)c2ccc(O[C@H]3c4cc(Cl)cc(OC)c4C[C@@H]3N(C)C)cc2)cc1` [Example 15, 3-[2-(2-[2-[(4-[[(1S,2S)-6-Chloro-2-(dimethylamino)-4-methoxy-2,3-dihydro-1H-inden-1-yl]oxy]benzene)sulfonamido]ethoxy]ethoxy)ethyl]-1-[4-([[2-(2-[2-[(4-[[(1S,2S)-6-chloro-2-(dimethylamino)-4-methoxy-2,3-dihydro-1H-inden-1-yl]oxy]benzene)sulfonamido]ethoxy]ethoxy)ethyl]carbamoyl]amino)butyl]urea; bis(trifluoroacetic acid)], at NHE3 [1], the “% inhibition” value is recorded as “A (NHE3 < 40%)” and the pIC50 result is “A (NHE3 pIC50 < 6)”. The “% inhibition” value on NHE3 [2] was “C (>70%)”. In addition, the IC50 – broadly, the concentration that gives 50% inhibition – against NHE3 [2] (0-30 μM test compound) was 100 to 1000 nM.

`Cc1cc(S(=O)(=O)NCCOCCOCCNC(=O)NCCCCNC(=O)NCCOCCOCCNS(=O)(=O)c2ccc(O[C@H]3c4cc(Cl)cc(F)c4C[C@@H]3N(C)C)c(C)c2)ccc1O[C@H]1c2cc(Cl)cc(F)c2C[C@@H]1N(C)C` [Example 16]: the “% inhibition” value on NHE3 [1] and on NHE3 [2] was “B (40-70%)” throughout. Besides, the pIC50 result at NHE3 [1] and against NHE3 [2] (0-30 μM test compound) was “C (NHE3 pIC50 > 7)” each time.

In the case of `Cc1cc(S(=O)(=O)NCCOCCOCCNC(=O)NCCCCNC(=O)NCCOCCOCCNS(=O)(=O)c2ccc(O[C@H]3c4cc(Cl)cc(C#N)c4C[C@@H]3N(C)C)c(C)c2)ccc1O[C@H]1c2cc(Cl)cc(C#N)c2C[C@@H]1N(C)C` [Example 18, 3-[2-(2-[2-[(4-[[(1S,2S)-6-Chloro-4-cyano-2-(dimethylamino)-2,3-dihydro-1H-inden-1-yl]oxy]-3-methylbenzene)sulfonamido]ethoxy]ethoxy)ethyl]-1-[4-([[2-(2-[2-[(4-[[(1S,2S)-6-chloro-4-cyano-2-(dimethylamino)-2,3-dihydro-1H-inden-1-yl]oxy]-3-methylbenzene)sulfonamido]ethoxy]ethoxy)ethyl]carbamoyl]amino)butyl]urea; bis(trifluoroacetic acid)], the “% inhibition” value on NHE3 [1] and on NHE3 [2] was “B (40-70%)” throughout. Besides, the pIC50 result on NHE3 [1] and at NHE3 [2] (0-30 μM test compound) was “C (NHE3 pIC50 > 7)” in each case.

`Cc1cc(S(=O)(=O)NCCOCCOCCNC(=O)NCCCCNC(=O)NCCOCCOCCNS(=O)(=O)c2ccc(O[C@H]3c4cc(Cl)cc(C(F)(F)F)c4C[C@@H]3N(C)C)c(C)c2)ccc1O[C@H]1c2cc(Cl)cc(C(F)(F)F)c2C[C@@H]1N(C)C` [Example 19, 3-[2-(2-[2-[(4-[[(1S,2S)-6-Chloro-2-(dimethylamino)-4-(trifluoromethyl)-2,3-dihydro-1H-inden-1-yl]oxy]-3-methylbenzene)sulfonamido]ethoxy]ethoxy)ethyl]-1-[4-([[2-(2-[2-[(4-[[(1S,2S)-6-chloro-2-(dimethylamino)-4-(trifluoromethyl)-2,3-dihydro-1H-inden-1-yl]oxy]-3-methylbenzene)sulfonamido]ethoxy]ethoxy)ethyl]carbamoyl]amino)butyl]urea]: the “% inhibition” value on NHE3 [1] and at NHE3 [2] was “A (NHE3 < 40%)” in each case. Further, the pIC50 result against NHE3 [1] and at NHE3 [2] (0-30 μM test compound) was “A (NHE3 pIC50 < 6)” each time.

For the compound `Cc1cc(S(=O)(=O)NCCOCCOCCNC(=O)NCCCCNC(=O)NCCOCCOCCNS(=O)(=O)c2ccc(O[C@H]3c4cc(Cl)cc(OC(F)(F)F)c4C[C@@H]3N(C)C)c(C)c2)ccc1O[C@H]1c2cc(Cl)cc(OC(F)(F)F)c2C[C@@H]1N(C)C` [Example 20, 1-[2-(2-[2-[(4-[[(1S,2S)-6-Chloro-2-(dimethylamino)-4-(trifluoromethoxy)-2,3-dihydro-1H-inden-1-yl]oxy]-3-methylbenzene)sulfonamido]ethoxy]ethoxy)ethyl]-3-[4-([[2-(2-[2-[(4-[[(1S,2S)-6-chloro-2-(dimethylamino)-4-(trifluoromethoxy)-2,3-dihydro-1H-inden-1-yl]oxy]-3-methylbenzene)sulfonamido]ethoxy]ethoxy)ethyl]carbamoyl]amino)butyl]urea], the “% inhibition” value at NHE3 [1] and at NHE3 [2] was “A (NHE3 < 40%)” in each case. Further, the pIC50 result against NHE3 [1] and against NHE3 [2] (0-30 μM test compound) was “A (NHE3 pIC50 < 6)” in each case.

For the compound `COc1cc(Cl)cc2c1C[C@H](N(C)C)[C@H]2Oc1ccc(S(=O)(=O)NCCOCCOCCNC(=O)NCCCCNC(=O)NCCOCCOCCNS(=O)(=O)c2ccc(O[C@H]3c4cc(Cl)cc(OC)c4C[C@@H]3N(C)C)c(C)c2)cc1C` [Example 21, 3-[2-(2-[2-[(4-[[(1S,2S)-6-Chloro-2-(dimethylamino)-4-methoxy-2,3-dihydro-1H-inden-1-yl]oxy]-3-methylbenzene)sulfonamido]ethoxy]ethoxy)ethyl]-1-[4-([[2-(2-[2-[(4-[[(1S,2S)-6-chloro-2-(dimethylamino)-4-methoxy-2,3-dihydro-1H-inden-1-yl]oxy]-3-methylbenzene)sulfonamido]ethoxy]ethoxy)ethyl]carbamoyl]amino)butyl]urea; bis(trifluoroacetic acid)], the “% inhibition” value was “C (>70%)” at NHE3 [1] and “A (NHE3 < 40%)” on NHE3 [2]. Moreover, the results for the pIC50 entry on NHE3 [1] and at NHE3 [2] (0-30 μM test compound) were “A (NHE3 pIC50 < 6)” and “C (NHE3 pIC50 > 7)”, respectively.

With `Cc1cc(S(=O)(=O)NCCOCCOCCNC(=O)NCCCCNC(=O)NCCOCCOCCNS(=O)(=O)c2ccc(O[C@H]3c4cc(Cl)cc(Cl)c4C[C@@H]3N(C)C)c(C)c2)ccc1O[C@H]1c2cc(Cl)cc(Cl)c2C[C@@H]1N(C)C` [Example 22, 3-[2-(2-[2-[(4-[[(1S,2S)-4,6-Dichloro-2-(dimethylamino)-2,3-dihydro-1H-inden-1-yl]oxy]-3-methylbenzene)sulfonamido]ethoxy]ethoxy)ethyl]-1-[4-([[2-(2-[2-[(4-[[(1S,2S)-4,6-dichloro-2-(dimethylamino)-2,3-dihydro-1H-inden-1-yl]oxy]-3-methylbenzene)sulfonamido]ethoxy]ethoxy)ethyl]carbamoyl]amino)butyl]urea dihydrochloride], the “% inhibition” value at NHE3 [1] and at NHE3 [2] was “C (>70%)” each time. Further, the pIC50 entry at NHE3 [1] and at NHE3 [2] (0-30 μM test compound) was “C (NHE3 pIC50 > 7)” each time.

For the origin of these results see US11242337B2, “Compounds useful for treating gastrointestinal tract disorders” (Ardelyx, Inc., priority 2017, dated 2022).
